# From US9545411B2, “Methods and compositions for treating progesterone-dependent conditions” (REPROS THERAPEUTICS INC., priority 2012, dated 2017)
# What was measured:
# [1] = tested on: hypothalamic pituitary axis (HPA); assay: Low-dose oral CDB-4124: effect on ovulation; format: in vivo; details: about 3-25 mg
# Source text: Contemporaneous systemic and local administration of antiprogestins to treat hormonally responsive breast cancer (i.e. the breast tumor contains estrogen and/or progesterone receptor) has advantages as well.
# [2] = Pharmacokinetic analysis of vaginal administration of 12 mg CDB-4124; format: in vivo, human
# Description: (§1) In an oral study, doses of 1, 3, 6, 9 and 12 mg of CDB-4124 were administered for a period of 10 weeks. […] Cessation of menses directly correlated to efficacy of an oral dose in both uterine fibroids and endometriosis.
# Thus, the onset of amenorrhea is delayed when the drug is administered vaginally, necessitating that the drug be vaginally administered during subsequent menstruations, which tends to reduce absorption of the drug and is unpleasant and technically challenging for the patient. The methods of the present invention provide a solution to this problem by providing a brief period of oral administration, preceding and overlapping vaginal administration, which expedites the onset of amenorrhea while retaining the benefits of vaginal administration.
# [3] = Oral study, 1-12 mg CDB-4124 for 10 weeks; format: in vivo
# Description: as §1
# [4] = Oral versus vaginal pharmacokinetics in beagles (25 mg); format: in vivo; details: for metabolism after oral administration: oral micronized powder; for metabolism after vaginal administration / peak plasma concentration (Cmax): vaginal suppository
# Description: FIG. 1 illustrates a comparison of the Cmax (peak serum concentration) and area under the curve (AUC) following oral and vaginal administration of CDB-4124 or CDB-4453 at a 25 mg dose in beagles.
# Beagles were administered 25 mg of CDB-4124 or CDB-4453 (the monodemethylated metabolite of CDB-4124) formulated as either a micronized powder or a vaginal suppository.
# [5] = Pharmacokinetic studies in clinical trial subjects after oral CDB-4124; format: in vivo, human; details: for maximum concentration for the 12.5 mg dose as percentage of the 50 mg dose: oral CDB-4124
# Description: (§2) The maximum concentrations of CDB-4124 and its mono-demethylated metabolite (CDB-4453) for the 12.5 mg dose were 25% of the 50 mg dose. All liver toxicities resolved in those women that returned for safety follow-ups, including those subjects that developed liver-associated serious adverse effects (SAEs).
# Pharmacokinetic studies performed on participating subjects detected a high Cmax and a Tmax at 1-2 hours following administration. Large quantities of the monodemethylated metabolite of CDB-4124 were also detected, clearly indicating first pass metabolism of the antiprogestin. […] Metabolism of CDB-4124 by the liver provides the opportunity for liver damage and greatly reduces the concentration of the antiprogestin before it reaches the systemic circulation. Thus, alternative routes of administration of antiprogestins that avoid first pass metabolism such as, without limitation, intravenous, intramuscular, and sublingual, should allow antiprogestins to be absorbed directly into the systemic circulation and thereby provide a method for treating progesterone-dependent conditions while avoiding liver toxicity. Administration routes which avoid first pass metabolism may also require less drug per dose to achieve the same therapeutic benefit relative to oral administration.
# [6] = tested on: uterine fibroids; assay: Single blind study of vaginal CDB-4124 in females with uterine fibroids; format: in vivo, human; details: vaginal 12 mg daily
# Description: Seven human females with uterine fibroids have completed 4 months of treatment as part of a single blind study. These females were vaginally administered a daily dose of 12 mg CDB-4124 for a period of four months, with dosing initiated during the luteal phase of the females' menstrual cycles. At the end of the four month treatment period, all seven females stopped menstruating and all reported a Pictural Blood Loss Assessment Chart (PBAC) score of 0 (p=0.002). A statistically significant and highly clinically meaningful reduction in Uterine Fibroid Symptom Quality of Life Survey (UFSQOL) scores was also observed. The mean UFSQOL score at baseline was 43.8 and at the end of the four month treatment period the mean score was 1.33 (p=0.001). […] As a reference, women with fibroids typically score 40 or higher, whereas women without fibroids report scores of approximately 20.
# Change in fibroid volume at the end of the four month treatment period determined by magnetic resonance imagining (MRI) was assessed and a statistically significant (chi square analysis) median reduction of total fibroid volume of 36% was observed.
# [7] = tested on: primary cultures of human and animal hepatocytes; assay: Metabolism in primary cultures of hepatocytes; format: in vitro ADME; details: primary hepatocyte cultures
# [8] = Cmax after vaginal administration in beagles extrapolated to humans; format: in vivo; details: for predicted Cmax for vaginal administration as percentage of the same oral dose: humans, extrapolated from beagles
# Description: FIG. 2 illustrates the actual Cmax observed for Proellex (CDB-4124) and its monodemethylated metabolite CDB-4453, following oral administration of CDB-4124 at 12.5 mg, 25 mg and 50 mg doses as well as the projected Cmax for 3 mg, 6 mg and 9 mg doses. FIG. 2 also illustrates the actual Cmax observed for Proellex (CDB-4124) and its monodemethylated metabolite CDB-4453, following vaginal administration of CDB-4124 at 12.5 mg, 25 mg and 50 mg doses.
# The maximum circulating concentrations (Cmax) of CDB-4124 obtained following vaginal administration to beagles were extrapolated to humans for the 12.5 mg, 25 mg and 50 mg doses actually administered during the Phase III clinical studies.
# For example, equivalent antiprogestational activity at the uterus is observed for a 50 mg oral dose of CDB-4124 and a 12.5 mg vaginal dose; however, the Cmax observed with a 12.5 mg vaginal dose is only 2% that observed with a 50 mg oral dose. […] Because a high concentration of the drug in the systemic circulation (and associated first pass metabolism of the drug) is not reached by local administration, avoidance of the severe liver toxicity observed in a small percentage of subjects following oral administration of CDB-4124 in previous Phase III clinical studies at doses of 25 and 50 mg is a surprising advantage of administering the drug locally. Similar advantages should inure to local administration of other antiprogestins.
# [9] = tested on: DMBA-induced breast tumors; assay: DMBA-induced breast tumor model, subcutaneous injection; format: in vivo, rodents
# Description: Pre-clinical studies were performed on rodents with breast tumors induced by 7,12-Dimethylbenz(a)anthracene (DMBA).
# [10] = tested on: progesterone-induced endometrial proliferation; assay: Anti-Clauberg study, subcutaneous versus oral; format: in vivo, rabbits
# Source text: FIG. 3 illustrates a comparison of the inhibition of progesterone-induced endometrial proliferation in estradiol-primed immature rabbits following subcutaneous injection and oral administration of CDB-4124.
# To determine whether the low circulating levels of CDB-4124 when administered locally could have any impact predictive of efficacy, an anti-Clauberg study was run in which immature estradiol-primed rabbits were coadministered progesterone and various doses of CDB-4124 by either subcutaneous or oral administration. At least 3 different highly trained individuals evaluated the rabbit uterus for glandular growth, for complexity and overall progesterone-induced “development”. The inhibition (by percentage) of progesterone-induced endometrial proliferation at each dose was assayed. […] However, maximal inhibition required a ˜8-fold increase in dosage when administered orally (i.e. 8 mg/kg). Importantly 8 mg/kg corresponds closely to the 50 mg/day dose of CDB-4124 administered to the female subjects described in Example 3.
# [11] = tested on: progesterone-induced endometrial proliferation; assay: Anti-Clauberg study, vaginal versus oral (McPhail index); format: in vivo, rabbits
# Description: FIG. 4 compares the antiprogestational effects of three doses of CDB-4124 when delivered orally versus when delivered to the vaginal mucosa of estradiol-primed immature rabbits in the presence of progesterone, as measured by a decrease in the McPhail index. Treatment with progesterone alone (vehicle control) provided a baseline measurement of progestational activity.
# Another anti-Clauberg study was run in which immature estradiol-primed rabbits were administered progesterone alone (vehicle control) or were coadministered progesterone and three doses of CDB-4124 by either vaginal or oral administration. The inhibition of progesterone-induced endometrial proliferation at each dose was assayed. FIG. 3 illustrates the decrease in the McPhail index following increasing doses of CDB-4124 administered by either route. Maximal inhibition (i.e. a decrease in the McPhail index to 1.5) occurred at 0.2 mg/kg CDB-4124 when administered vaginally, compared to 0.8 mg/kg when administered orally.
# [12] = Clinical trials of daily oral Proellex (CDB-4124): liver toxicity / liver enzymes; format: in vivo, human; details: for subjects with liver enzyme elevations reported as SAEs: of seven SAEs
# Description: as §2
# To date, over 600 patients, including women with confirmed cases of endometriosis or uterine fibroids, have participated in double blind and open label clinical trials in which patients were administered daily oral capsules containing doses of 12.5 mg, 25 mg or 50 mg CDB-4124 (Proellex) for over one month. Of these patients, about 500 received Proellex and about 130 received a placebo. Of the patients receiving Proellex, about 190 received a dose of 50 mg CDB-4124 per day, about 260 received a dose of 25 mg CDB-4124 per day and about 55 received a dose of 12.5 mg per day.
# Liver enzymes were frequently monitored in participating subjects. The liver enzyme level at which the clinical trials would be discontinued was set at an increase in liver aminotransferases greater than, or equal to three times the Upper Limit of Normal (≧3×ULN).
# Of the nine subjects with a confirmed increase in liver enzymes ≧3×ULN, seven were severe enough elevations to be reported to the FDA as SAEs. One of these seven subjects had been receiving a dose of 25 mg CDB-4124 per day; the remaining six subjects had been receiving a dose of 50 mg CDB-4124 per day. Liver enzymes ≧3×ULN persisted in five of the nine subjects with a confirmed increase in liver enzymes ≧3×ULN. These five subjects had previously been dosed with the 50 mg dose. One of these subjects is receiving oral medication for treatment of their liver condition. Clinical trials involving CDB-4124 at all doses were voluntarily suspended as a result of these SAEs and were subsequently placed on clinical hold by the United States Food and Drug Administration for safety reasons.
structure (smiles),measurement,setting,value
"COCC(=O)[C@@]1(OC(C)=O)CC[C@H]2[C@@H]3CCC4=CC(=O)CCC4=C3[C@@H](c3ccc(N(C)C)cc3)C[C@@]21C [CDB-4124, 21-methoxy-17α-acetoxy-11β-(4 N, N-dimethylaminophenyl)-19-norpregna-4,9-diene-3,20-dione]",suppression of ovulation,[1],partially but not completely suppress ovulation
same,maximum exposure (Cmax) relative to a 50 mg oral dose,[2]; vaginal 12 mg,about 1/100
same,systemic exposure (AUC) relative to an equivalent oral dose,[2]; vaginal 12 mg,about ⅙
same,"build-up of drug concentration, vaginal relative to oral",[2]; vaginal administration,build slowly
same,lowest dose inducing reliable cessation of menses,[3]; oral,3 mg
same,tolerability,"[3]; oral 1, 3, 6, 9 and 12 mg",well tolerated
same,"systemic exposure (AUC), vaginal vs. oral",[4],much lower when administered locally
same,metabolism after oral administration,[4],rapidly metabolized
same,metabolism after vaginal administration,[4],metabolized slowly
same,peak plasma concentration (Cmax),[4],relatively low
same,Tmax,[5]; following oral administration,1 to 2 h
same,maximum concentration for the 12.5 mg dose as percentage of the 50 mg dose,[5],25%
same,median reduction of total fibroid volume (MRI),[6]; end of four months,36%
same,Pictural Blood Loss Assessment Chart (PBAC) score,"[6]; end of four months, p=0.002",0
same,females who stopped menstruating,"[6]; end of four months, seven females",seven
same,mean Uterine Fibroid Symptom Quality of Life Survey (UFSQOL) score,"[6]; end of four months, baseline 43.8, p=0.001",1.33
same,females no longer experiencing any fibroid related symptoms,"[6]; four months, of seven",six
same,formation of mono-demethylated metabolite,[7],rapidly produce the mono-demethylated metabolite
same,predicted Cmax for vaginal administration as percentage of the same oral dose,[8]; 12.5 mg dose,approximately 6.5%
same,predicted Cmax for vaginal administration as percentage of the same oral dose,[8]; 50 mg dose,approximately 2%
same,Cmax with a 12.5 mg vaginal dose as percentage of a 50 mg oral dose,"[8]; in vivo, po",2%
same,effect on quantity and size of DMBA-induced breast tumors,[9],effective in reducing the quantity and size of DMBA-induced breast tumors
same,dose giving maximal inhibition of progesterone-induced endometrial proliferation,[10]; oral,8 mg/kg
same,"increase in dosage required for maximal inhibition, oral vs. subcutaneous","[10]; rabbit, in vivo",~8 fold
same,dose giving maximal inhibition of progesterone-induced endometrial proliferation,[10]; subcutaneous,less than 1 mg/kg
same,McPhail index at maximal inhibition,[11]; 0.2 mg/kg vaginal or 0.8 mg/kg oral,1.5
same,dose giving maximal inhibition (decrease in McPhail index),[11]; oral,0.8 mg/kg
same,antiprogestational activity of vaginal delivery relative to the same oral dose,"[11]; rabbit, in vivo, po",four
same,dose giving maximal inhibition (decrease in McPhail index),[11]; vaginal,0.2 mg/kg
same,adverse liver toxicity signals,[12]; 12.5 mg,no adverse liver toxicity signals different from placebo
same,subjects with liver enzyme elevations reported as SAEs,[12]; 25 mg per day,One
same,frequency and intensity of liver effects relative to 50 mg/day,[12]; 25 mg/day,significantly lower in frequency and intensity
same,subjects in whom liver enzymes ≧3×ULN persisted,"[12]; 50 mg dose, of nine confirmed",five
same,subjects with liver enzyme elevations reported as SAEs,[12]; 50 mg per day,six
same,women exhibiting severe liver toxicity,[12]; 50 mg/day,3-4%
same,subjects with confirmed increase in liver enzymes ≧3×ULN,"[12]; all doses (12.5, 25, 50 mg/day), confirmed by repeat test in 48 hours",nine
"CNc1ccc([C@H]2C[C@@]3(C)[C@@H](CC[C@]3(OC(C)=O)C(=O)COC)[C@@H]3CCC4=CC(=O)CCC4=C32)cc1 [CDB-4453, 21-methoxy-17α-acetoxy-11β-(4-N-methylaminophenyl)-19-norpregna-4,9-diene-3,20-dione]","systemic exposure (AUC), vaginal vs. oral",[4],much lower when administered locally
same,metabolism after oral administration,[4],rapidly metabolized
same,metabolism after vaginal administration,[4],metabolized slowly
same,peak plasma concentration (Cmax),[4],relatively low
same,maximum concentration for the 12.5 mg dose as percentage of the 50 mg dose,[5],25%
